Assay results taken from patent US12091652B2, “Ammonia-oxidizing Nitrosomonas eutropha strain D23” (priority 2014, dated 2024).
Like-named read-outs stand apart in the source and are kept apart here.

Test system: Nitrosomonas eutropha D23
Experiment: Antibiotic susceptibility (MIC) of N. eutropha D23 cultures in vitro
Assay type: cell-based
Details: for MIC: 30° C., 48-72 hr, OD600, two-fold dilution series; for MIC Interpretive Criteria (phenotype of N. eutropha D23): CLSI criteria, MIC levels of the outcome stand in parentheses in the cell
Method: The activities of five antibiotics, each representing a different antibiotic class, were tested against Nitrosomonas eutropha D23. The antibiotics tested included clindamycin, erythromycin, gentamicin, piperacillin with or without the β-lactamase inhibitor Tazobactam, and tetracycline. These were chosen based on the Clinical and Laboratory Standards Institute (CLSI) recommendations for routine testing and reporting of phylogenetically-related proteobacteria (Pseudomonas aeruginosa) listed under Non-fastidious organisms and Non-Enterobacteriaceae in the CLSI 24th Informational Supplement (M100-S24), and also included topical or systemic antimicrobial agents commonly used against acne, such as clindamycin or tetracycline. Studies with clindamycin were included even though this antibiotic was not expected to be very effective at inhibiting Nitrosomonas, as is the case for other aerobic Gram-negative bacteria.
Minimal Inhibitory Concentrations (MICs) were determined by culturing N. eutropha D23 in decreasing concentrations of each of the five antibiotics. Bacterial growth at 30° C. was monitored for 48-72 hr by determining optical density (OD600) values in samples collected at 24 hr intervals. MIC values were identified as the lowest antibiotic concentration from a two-fold dilution series leading to no increase in OD600 measurements for the 2 or 3-day incubation period. The N. eutropha D23 phenotype in each antibiotic test was determined as Susceptible, Intermediate, or Resistant according to the MIC Interpretive Criteria provided by the CLSI. […] Clindamycin resistance observed for N. eutropha D23 is in agreement with previous reports for natural resistance of aerobic Gram-negative bacteria to this antibiotic. In addition to testing the β-lactam antibiotic piperacillin alone, the broad range β-lactamase inhibitor Tazobactam was also tested in combination with piperacillin to assess the possible expression of β-lactamase(s) by N. eutropha D23.

[1] = Nitrosomonas eutropha, D23, read-out: MIC

Row | Molecule | MIC Interpretive Criteria (phenotype of N. eutropha D23) | MIC [1] | other results
1 | Gentamicin | Susceptible (≤4 μg/ml) |  | MIC: 0.25 µg/mL; MIC Interpretive Criteria (phenotype of N. eutropha D23) (listed as gentamicin): susceptibility
2 | CC[C@H]1OC(=O)[C@H](C)[C@@H](O[C@H]2C[C@@](C)(OC)[C@@H](O)[C@H](C)O2)[C@H](C)[C@@H](O[C@@H]2O[C@H](C)C[C@H](N(C)C)[C@H]2O)[C@](C)(O)C[C@@H](C)C(=O)[C@H](C)[C@@H](O)[C@]1(C)O [Erythromycin] | Susceptible (≤0.5 μg/ml) | 0.16 µg/mL | MIC Interpretive Criteria (phenotype of N. eutropha D23) (listed as erythromycin): susceptibility
3 | CCN1CCN(C(=O)N[C@@H](C(=O)N[C@@H]2C(=O)N3[C@@H]2SC(C)(C)[C@@H]3C(=O)O)c2ccccc2)C(=O)C1=O [Piperacillin] | Intermediate (32-64 μg/ml) | 64 µg/mL | MIC Interpretive Criteria (phenotype of N. eutropha D23) (listed as piperacillin): intermediate resistance
4 | Piperacillin/Tazobactam | Intermediate |  | MIC: 64/4
5 | CCC[C@@H]1C[C@@H](C(=O)N[C@@H]([C@H]2O[C@H](SC)[C@H](O)[C@@H](O)[C@H]2O)[C@H](C)Cl)N(C)C1 [Clindamycin] |  | > 16 µg/mL | 
6 | CN(C)[C@@H]1C(O)=C(C(N)=O)C(=O)[C@@]2(O)C(O)=C3C(=O)c4c(O)cccc4[C@@](C)(O)[C@H]3C[C@@H]12 [Tetracycline] |  | 8 µg/mL | 
7 | C[C@]1(Cn2ccnn2)[C@H](C(=O)O)N2C(=O)C[C@H]2S1(=O)=O [Tazobactam] |  |  | effect of adding the β-lactamase inhibitor to piperacillin on N. eutropha D23 susceptibility (in combination with piperacillin): no increase in N. eutropha D23 susceptibility
